Experimental data as given in US4822791A, “Pharmaceutical compositions of-2,2-1,1-[bis-2,2'-(3,1-benzoxazin-4-one)9 ethylenes” (priority 1984, dated 1989).
“And” between values parts separate entries of the source, which are not always exact repeats. Equal values may be shown once. Read-outs that look alike come from different tables or passages of the source.

Legend:
[1] = system: anaphylaxis reaction to inhalated antigen; assay: Antigen inhalation test on passive sensitized guinea pig (experimental asthma model); type: in vivo; conditions: 200 mg/kg po
Method: The test compound and Tranilast were respectively suspended at the time of use in 5% gum arabic solution containing 0.1% Tween 80 at the rate of 40 mg/ml, and were perorally administered at the rate of 0.5 ml per 100 g body weight of the animal.
DSCG was dissolved at the time of use in physiological saline solultion for injection at the rate of 5.0 mg/ml, and was intravenously injected at the rate of 0.1 ml per 100 g body weight of the animal.
Anti-ovalbumin rabbit serum diluted with physiological saline solution for injection so as tc contain anti-ovalbumin rabbit antibody at the rate of 0.187 mg N/ml was intravenously administered to guinea pig at the rate of 0.1 ml per 100 g of body weight and it was passively sensitized.
Twenty-four hours later, the suspension of the compound prepared in (1) above was perorally or intravenously administered to the animal. The animal was put in the inhalation chamber one hour after the administration in case of the peroral administration and five minutes after the administration in case of the intravenous administration, and 2% physiological saline solution of antigen ovalbumin was inhaled by spraying. Over 10 minutes' period from the time immediately after the forced inhalation, the time until its fall attributed to anaphylaxis reaction was recorded, and the numbers of alive and dead animals after lapse of 10 minutes were also counted.

[2] = Acute toxicity LD50 in mice (Test Example 8); conditions: mouse, in vivo, one week, Probit method
Method: ddy-Strain mice (male) and Wistar strain rats were used to obtain LD50 values.
According to the ordinary procedure, suspension or solution of test sample was administered to the animals. From the number of the died animals until one week after the administration, LD50 values were obtained by Probit method.

[3] = system: experimental ulcer model (Shay); assay: Anti-ulcer activity in experimental ulcer model (Shay); type: in vivo, Wistar strain male rats
Method in brief: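 Wistar male rats, 8 weeks old, 5 per group, fasted 48 h, pylorus ligated under ether (Shay method); compound in 0.5% CMC/0.1% Tween 80 given id or ip, vehicle to controls. Stomach removed 8 h later; ulcers scored, gastric juice volume, acidity (alkali titration), pepsin (haemoglobin substrate) expressed as % inhibition versus control mean.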

[4] = system: passive systemic anaphylaxis (PSA); assay: Preventive activity against passive systemic anaphylaxis (PSA) in guinea pig; type: in vivo, Hartley strain female guinea pig
Method: Effect of the compound on prevention of death by passive systemic anaphylaxis was examined in guinea pig.
Normal Hartley strain female guinea pig (body weight, 240-260 g) was sensitized by intravenous administraticn of anti-ovalbumin rabbit serum. It was perorally administered with the compound 11 in the amount of 200 mg/kg. One hour later, it was intravenously administered with 2% physiological saline solution of antigen ovalbumin at the rate of 0.05 ml. Thereafter, the state was observed, and the time (seconds) until death was measured.

O=C(Nc1ccccc1C(=O)O)C(=Cc1ccccc1)C(=O)Nc1ccccc1C(=O)O [Compound 11, 2,2'-[(1,3-dioxo-2-phenylmethylene-1,3-propanediyl)diimino]bisbenzoic acid]
Extended rate (%) [1]: 43.5%
preventive effect on anaphylaxis reaction (in words) [1]: strong preventive effect
Average time for falling Mean ± S.E. ([1]; N 5): 223.0 ± 15.7 s
Required time (sec.) for falling and Number of death (#), single animals ([1]; N 5, observed 10 minutes, # shows death): 194 s and 227 s and 248 s and > 600 s
LD50 at 168 h ([2]; iv, read-out: LD50 value (mg/kg body weight) Mouse i.v.): 344 mg/kg
LD50 at 168 h ([2]; po, read-out: LD50 value (mg/kg body weight) Mouse p.o.): > 10000 mg/kg
Inhibition % Gastric Acidity ([3]; id 100 mg/kg): 4.7%
Inhibition % secretion amount of gastric juice ([3]; id 100 mg/kg): 0%
Inhibition % total pepsin titer ([3]; id 100 mg/kg): 0%
Inhibition % Gastric Acidity ([3]; id 200 mg/kg): 16.5%
Inhibition % secretion amount of gastric juice ([3]; id 200 mg/kg): 20.1%
Inhibition % total pepsin titer ([3]; id 200 mg/kg): 9.1%
average living time ([4]; 200 mg/kg perorally, control group 294.9 seconds): 441.7 s
Extended rate (%) ([4]; 200 mg/kg po): 49.8%
anti-PSA activity (in words) ([4]; 200 mg/kg po): statistically significant anti-PSA activity
Ave. time to death Mean ± S.E. ([4]; 200 mg/kg po, N 10): 441.70 ± 21.5 s
Required time (sec.) to death, single animals ([4]; 200 mg/kg po, N 10): 431 s and 548 s and 488 s and 475 s and 367 s and 492 s and 485 s and 352 s and 348 s
